The values that follow come from PubChem BioAssay AID328 (DTP/NCI, 2004).

Molecules are shown by their SMILES. Where “and” joins values, the source holds several entries; their conditions need not be identical. Equal entries are not always repeated. Toxic doses and inconclusive results are not listed.

In this test the test system is BDF1 mice, P388 leukemia ip, median survival T/C. Nature of the test: NCI In Vivo Anticancer Drug Screen. Data for tumor model P388 Leukemia (intraperitoneal) in B6D2F1 (BDF1) mice. The following applies: endpoint: median survival time, higher = longer survival. In outline: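 Read-out is survival of treated animals expressed relative to the vehicle group, as a T/C ratio.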

Setting [1] is: dose: 100.0 mg/kg/injection, schedule: Q04DX003 (ip), vehicle: Klucel (hydroxypropylcellulose) (HPC).
The mark [2] stands for this setting: dose: 200.0 mg/kg/injection, schedule: Q04DX003 (ip), vehicle: Klucel (hydroxypropylcellulose) (HPC).
[3] abbreviates: dose: 400.0 mg/kg/injection, schedule: Q04DX003 (ip), vehicle: Klucel (hydroxypropylcellulose) (HPC).
Where [4] appears, read: dose: 100.0 mg/kg/injection, schedule: Q01DX009 (ip), vehicle: Klucel (hydroxypropylcellulose) (HPC).
[5] abbreviates: dose: 100.0 mg/kg/injection, schedule: Q01DX009 (ip), vehicle: saline.
The mark [6] stands for this setting: dose: 100.0 mg/kg/injection, schedule: Q04DX003 (ip), vehicle: saline.
Setting [7] is: dose: 200.0 mg/kg/injection, schedule: Q04DX003 (ip), vehicle: saline.
The mark [8] stands for this setting: dose: 400.0 mg/kg/injection, schedule: Q04DX003 (ip), vehicle: saline.
The mark [9] stands for this setting: dose: 100.0 mg/kg/injection, schedule: Q04DX003 (ip), vehicle: saline with Tween-80.

Take `CC(=O)OCC(=O)[C@@]1(O)[C@H](C)C[C@H]2[C@@H]3C=C(C)C4=Cc5c(cnn5-c5ccc(F)cc5)C[C@]4(C)[C@H]3[C@@H](O)C[C@@]21C`: the T/C is, setting by setting: (dose: 0.19 mg/kg/injection, schedule: Q01DX009 (sc), vehicle: steriod suspending solution) 120 % of control; (dose: 0.39 mg/kg/injection, schedule: Q01DX009 (sc), vehicle: steriod suspending solution) 110 % of control; (dose: 0.58 mg/kg/injection, schedule: Q04DX003 (sc), vehicle: steriod suspending solution) 118 % of control; (dose: 0.78 mg/kg/injection, schedule: Q01DX009 (sc), vehicle: steriod suspending solution) 90 % of control; (dose: 1.17 mg/kg/injection, schedule: Q04DX003 (sc), vehicle: steriod suspending solution) 118 % of control; (dose: 2.34 mg/kg/injection, schedule: Q04DX003 (sc), vehicle: steriod suspending solution) 118 % of control. The T/C is, setting by setting: (dose: 3.4 mg/kg/injection, schedule: Q04DX003 (sc), vehicle: steriod suspending solution) 100 % of control; (dose: 5.3 mg/kg/injection, schedule: Q04DX003 (sc), vehicle: steriod suspending solution) 90 % of control; (dose: 6.0 mg/kg/injection, schedule: Q04DX003 (ip), vehicle: Klucel (hydroxypropylcellulose) (HPC)) 105 % of control; (dose: 12.0 mg/kg/injection, schedule: Q04DX003 (ip), vehicle: Klucel (hydroxypropylcellulose) (HPC)) 105 % of control; (dose: 25.0 mg/kg/injection, schedule: Q04DX003 (ip), vehicle: Klucel (hydroxypropylcellulose) (HPC)) 90 % of control; under setting [1], 90 % of control.
Take `O=C1c2c(Cl)c(Cl)c(Cl)c(Cl)c2C(=O)N1c1ccccc1-c1ccccc1`: the T/C is 89 % of control (dose: 175.0 mg/kg/injection, schedule: Q01DX009 (ip), vehicle: saline with Tween-80) and 94 % of control (dose: 350.0 mg/kg/injection, schedule: Q01DX009 (ip), vehicle: saline with Tween-80).
Take `ClC(Cl)(Cl)C1OCOC(C(Cl)(Cl)Cl)OCO1` (configuration not stated): the T/C reads like this: under setting [1], 90 % of control; under setting [2], 100 % of control; under setting [3], 90 % of control.
On to `COc1ccc(Cl)cc1NC(=O)NNC(=O)C(=O)Nc1ccc(F)cc1`, for which the T/C runs as follows: (dose: 50.0 mg/kg/injection, schedule: Q01DX005 (ip), vehicle: saline with Tween-80) 91 % of control; (dose: 100.0 mg/kg/injection, schedule: Q01DX005 (ip), vehicle: saline with Tween-80) 91 % of control; (dose: 200.0 mg/kg/injection, schedule: Q01DX005 (ip), vehicle: saline with Tween-80) 100 % of control.
For the compound `COc1cc2c(c(OC)c1OC)CC/C(=C\O)C2=O`, the T/C is, setting by setting: (dose: 50.0 mg/kg/injection, schedule: Q01DX009 (ip), vehicle: Klucel (hydroxypropylcellulose) (HPC)) 112 % of control; under setting [4], 114 % of control; (dose: 200.0 mg/kg/injection, schedule: Q01DX009 (ip), vehicle: Klucel (hydroxypropylcellulose) (HPC)) 106 % of control.
On to `FC(F)(F)c1cc(CN(CCCl)CCCl)cc(C(F)(F)F)c1`, for which the T/C is, setting by setting: (dose: 12.5 mg/kg/injection, schedule: Q01DX009 (ip), vehicle: Klucel (hydroxypropylcellulose) (HPC)) 101 % of control; (dose: 12.5 mg/kg/injection, schedule: Q01DX009 (ip), vehicle: other) 116 % of control; (dose: 12.5 mg/kg/injection, schedule: Q01DX009 (ip), vehicle: saline) 100 % of control; (dose: 25.0 mg/kg/injection, schedule: Q01DX009 (ip), vehicle: Klucel (hydroxypropylcellulose) (HPC)) 108 % of control and 120 % of control; (dose: 25.0 mg/kg/injection, schedule: Q01DX009 (ip), vehicle: saline) 188 % of control; (dose: 50.0 mg/kg/injection, schedule: Q01DX009 (ip), vehicle: other) 150 % of control. In addition, the T/C runs as follows: (dose: 50.0 mg/kg/injection, schedule: Q01DX009 (ip), vehicle: saline) 172 % of control; under setting [4], 153 % of control and 165 % of control; under setting [5], 194 % of control.
For `C[N+](C)(C)CCC[N+](C)(C)C`, the T/C reads like this: under setting [6], 100 % of control; (dose: 200.0 mg/kg/injection, schedule: Q01DX006 (ip), vehicle: saline) 114 % of control; under setting [7], 104 % of control; (dose: 300.0 mg/kg/injection, schedule: Q01DX006 (ip), vehicle: saline) 151 % of control; (dose: 400.0 mg/kg/injection, schedule: Q01DX006 (ip), vehicle: saline) 94 % of control; under setting [8], 93 % of control.
On to `Cc1cc(=O)[nH]c2c1CCC2`, for which the T/C was 109 % of control (dose: 50.0 mg/kg/injection, schedule: Q01DX009 (ip), vehicle: saline with Tween-80); 100 % of control (dose: 50.0 mg/kg/injection, schedule: Q04DX003 (ip), vehicle: saline with Tween-80); 90 % of control (dose: 100.0 mg/kg/injection, schedule: Q01DX009 (ip), vehicle: saline with Tween-80); 100 % of control under setting [9]; 104 % of control (dose: 200.0 mg/kg/injection, schedule: Q01DX009 (ip), vehicle: saline with Tween-80); 100 % of control (dose: 200.0 mg/kg/injection, schedule: Q04DX003 (ip), vehicle: saline with Tween-80).
In the case of `O=S(=O)(Nc1ccc(NS(=O)(=O)c2ccccc2)nc1)c1ccccc1`, the T/C is, setting by setting: under setting [1], 100 % of control; under setting [2], 104 % of control; under setting [3], 100 % of control.
On to `O=c1cn[nH]c(=O)[nH]1`, for which the T/C is 100 % of control (dose: 62.5 mg/kg/injection, schedule: Q01DX010 (ip), vehicle: saline); 100 % of control (dose: 125.0 mg/kg/injection, schedule: Q01DX010 (ip), vehicle: saline); 100 % of control (dose: 250.0 mg/kg/injection, schedule: Q01DX010 (ip), vehicle: saline); 95 % of control (dose: 500.0 mg/kg/injection, schedule: Q01DX010 (ip), vehicle: saline).
`Cc1cc(N)on1`: the T/C was 100 % of control under setting [5]; 109 % of control under setting [6]; 96 % of control (dose: 200.0 mg/kg/injection, schedule: Q01DX009 (ip), vehicle: saline); 109 % of control under setting [7]; 109 % of control under setting [8].
For `NC(C(=O)O)c1cc(=O)[nH]o1` (configuration not stated), the T/C reads like this: (dose: 0.25 mg/kg/injection, schedule: Q01DX009 (ip), vehicle: Klucel (hydroxypropylcellulose) (HPC)) 86 % of control; (dose: 0.5 mg/kg/injection, schedule: Q01DX009 (ip), vehicle: Klucel (hydroxypropylcellulose) (HPC)) 97 % of control; (dose: 1.0 mg/kg/injection, schedule: Q01DX009 (ip), vehicle: Klucel (hydroxypropylcellulose) (HPC)) 112 % of control.
In the case of `CC(C)(CO)Nc1ccccc1`, the T/C was 110 % of control under setting [6], 100 % of control under setting [7] and 100 % of control under setting [8].
For the compound `O=c1[nH]c2c(ccc3cccnc32)c2c1CCC2`, the T/C under setting [9] was 92 % of control and the T/C (dose: 400.0 mg/kg/injection, schedule: Q04DX003 (ip), vehicle: saline with Tween-80) was 93 % of control.
`CC1=CC(=O)[C@@H](O)[C@]2(C)[C@H]3[C@@]4(O)OC[C@]35[C@H]([C@@H](C)[C@H]4O)[C@@H](OC(=O)c3ccccc3)C(=O)O[C@@H]5C[C@@H]12`: the T/C is 121 % of control (dose: 0.03 mg/kg/injection, schedule: Q01DX009 (ip), vehicle: saline with Tween-80); 118 % of control (dose: 0.06 mg/kg/injection, schedule: Q01DX009 (ip), vehicle: saline with Tween-80); 122 % of control (dose: 0.12 mg/kg/injection, schedule: Q01DX009 (ip), vehicle: saline with Tween-80).
Turning to `O=C(NCCCCCCCCCCNC(=O)N1CC1)N1CC1`, the T/C was 154 % of control (dose: 3.0 mg/kg/injection, schedule: Q04DX003 (ip), vehicle: saline with Tween-80) and 241 % of control (dose: 4.5 mg/kg/injection, schedule: Q04DX003 (ip), vehicle: saline with Tween-80).
On to `COC(=O)CCCCCCCCC[CH2][Hg][Cl]`, for which the T/C by setting is: (dose: 6.25 mg/kg/injection, schedule: Q04DX003 (ip), vehicle: saline sonified) 100 % of control; (dose: 12.5 mg/kg/injection, schedule: Q04DX003 (ip), vehicle: saline sonified) 100 % of control; (dose: 25.0 mg/kg/injection, schedule: Q04DX003 (ip), vehicle: saline sonified) 122 % of control.
